Experiments:
Conditions in all cases: 72 h
[1] = test system: myeloid leukemia patient primary cells Pat.6; assay: cell viability (% survival relative to DMSO control); higher = less cytotoxic
Outline: (§1)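 Where an area under the curve appears, it was computed with the drc and PharmacoGx R packages from log-logistic fits. Those fits used four parameters. The underlying viability data came from CellTiter-Glo after 72 h, normalised to DMSO and 10 μM proteasome-inhibitor wells, with thawed, Ficoll-purified AML or CML patient mononuclear cells at 10,000 cells/well in RPMI 1640 with 10% FBS on 384-well plates pre-printed with 70 compounds at five tenfold concentrations (1–10,000 nM) in duplicate.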

[2] = test system: myeloid leukemia patient primary cells Pat.3; assay: as above
Outline: as §1

[3] = test system: myeloid leukemia patient primary cells Pat.8; assay: as above
Outline: as §1

[4] = test system: myeloid leukemia patient primary cells Pat.15; assay: as above
Outline: as §1

[5] = test system: myeloid leukemia patient primary cells Pat.4; assay: as above
Outline: as §1

[6] = test system: myeloid leukemia patient primary cells Pat.10; assay: as above
Outline: as §1

[7] = test system: myeloid leukemia patient primary cells Pat.11; assay: as above
Outline: as §1

[8] = test system: myeloid leukemia patient primary cells Pat.12; assay: as above
Outline: as §1

[9] = test system: myeloid leukemia patient primary cells Pat.9; assay: as above
Outline: as §1

[10] = test system: myeloid leukemia patient primary cells Pat.14; assay: as above
Outline: as §1

[11] = test system: myeloid leukemia patient primary cells Pat.5; assay: as above
Outline: as §1

[12] = test system: myeloid leukemia patient primary cells Pat.7; assay: as above
Outline: as §1

[13] = test system: myeloid leukemia patient primary cells Pat.1; assay: as above
Outline: as §1

[14] = test system: myeloid leukemia patient primary cells Pat.13; assay: as above
Outline: as §1

[15] = test system: myeloid leukemia patient primary cells Pat.2; assay: as above
Outline: as §1

Mono-Mac-6 = assay: cell viability (% survival relative to DMSO control, bortezomib = 0%); higher = less cytotoxic
Outline: (§2)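 Percent survival is reported as the mean of duplicate wells. Cells from 10 AML and 5 CML lines were plated in 384-well plates containing compounds at 1, 10, 100, 1000 or 10000 nM and kept for 72 h at 37 °C in 5% CO2. Readout used CellTiter-Glo luminescence, scaled so that vehicle equals 100% and a 10 µM positive control equals 0%.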

KU-812 = assay: as above
Outline: as §2

NOMO-1 = assay: as above
Outline: as §2

THP-1 = assay: as above
Outline: as §2

O=C(/C=C/c1cccnc1)NCCCCC1CCN(C(=O)c2ccccc2)CC1 [Daporinad]
cell viability ([1]; 1 nM): 60.3%
cell viability ([1]; 10 nM): 51.7%
cell viability ([1]; 100 nM): 24.6%
cell viability ([1]; 1000 nM): 25.6%
cell viability ([1]; 10000 nM): 19.4%
cell viability ([2]; 1 nM): 3.7%
cell viability ([2]; 10 nM): 2.72%
cell viability ([2]; 100 nM): 2.93%
cell viability ([2]; 1000 nM): 3.29%
cell viability ([2]; 10000 nM): 2.8%
cell viability ([3]; 1 nM): 98.3%
cell viability ([3]; 10 nM): 11%
cell viability ([3]; 100 nM): 4.49%
cell viability ([3]; 1000 nM): 10.4%
cell viability ([3]; 10000 nM): 0.503%
cell viability ([4]; 1 nM): 80.9%
cell viability ([4]; 10 nM): 24.2%
cell viability ([4]; 100 nM): 0.879%
cell viability ([4]; 1000 nM): 1.32%
cell viability ([4]; 10000 nM): 0.659%
cell viability ([5]; 1 nM): 38.2%
cell viability ([5]; 10 nM): 3.86%
cell viability ([5]; 100 nM): 2.67%
cell viability ([5]; 1000 nM): 2.08%
cell viability ([5]; 10000 nM): 0.709%
cell viability ([6]; 1 nM): 28.5%
cell viability ([6]; 10 nM): 2.87%
cell viability ([6]; 100 nM): < 0%
cell viability ([6]; 1000 nM): 2.87%
cell viability ([6]; 10000 nM): < 0%
cell viability ([7]; 1 nM): 94.7%
cell viability ([7]; 10 nM): 10.9%
cell viability ([7]; 100 nM): 1.05%
cell viability ([7]; 1000 nM): 2.36%
cell viability ([7]; 10000 nM): 0.862%
cell viability ([8]; 1 nM): 91.5%
cell viability ([8]; 10 nM): 32.2%
cell viability ([8]; 100 nM): 8.2%
cell viability ([8]; 1000 nM): 5.73%
cell viability ([8]; 10000 nM): 3.19%
cell viability ([9]; 1 nM): 0.773%
cell viability ([9]; 10 nM): < 0%
cell viability ([9]; 100 nM): 0.492%
cell viability ([9]; 1000 nM): 0.773%
cell viability ([9]; 10000 nM): 0.773%
cell viability ([10]; 1 nM): 17.1%
cell viability ([10]; 10 nM): 1.32%
cell viability ([10]; 100 nM): 2.09%
cell viability ([10]; 1000 nM): < 0%
cell viability ([10]; 10000 nM): 0.671%
cell viability ([11]; 1 nM): 0.265%
cell viability ([11]; 10 nM): < 0%
cell viability ([11]; 100 nM): 9.08%
cell viability ([11]; 1000 nM): < 0%
cell viability ([11]; 10000 nM): < 0%
cell viability ([12]; 1 nM): 6.69%
cell viability ([12]; 10 nM): < 0%
cell viability ([12]; 100 nM): < 0%
cell viability ([12]; 1000 nM): < 0%
cell viability ([12]; 10000 nM): < 0%
cell viability ([13]; 1 nM): 98.2%
cell viability ([13]; 10 nM): 64.2%
cell viability ([13]; 100 nM): 20.9%
cell viability ([13]; 1000 nM): 16.9%
cell viability ([13]; 10000 nM): 11%
cell viability ([14]; 1 nM): 95%
cell viability ([14]; 10 nM): 34.4%
cell viability ([14]; 100 nM): 9.16%
cell viability ([14]; 1000 nM): 3.22%
cell viability ([14]; 10000 nM): 7.15%
cell viability ([15]; 1 nM): 91.1%
cell viability ([15]; 10 nM): 30.5%
cell viability ([15]; 100 nM): 11.7%
cell viability ([15]; 1000 nM): 9.71%
cell viability ([15]; 10000 nM): 6.63%
cell viability (Mono-Mac-6; 1 nM): 99.2%
cell viability (Mono-Mac-6; 10 nM): 75.4%
cell viability (Mono-Mac-6; 100 nM): 16.7%
cell viability (Mono-Mac-6; 1000 nM): 16.4%
cell viability (Mono-Mac-6; 10000 nM): 0.909%
cell viability (KU-812; 1 nM): 71.9%
cell viability (KU-812; 10 nM): 14.8%
cell viability (KU-812; 100 nM): 5.16%
cell viability (KU-812; 1000 nM): 5.8%
cell viability (KU-812; 10000 nM): 4.77%
cell viability (NOMO-1; 1 nM): 34.5%
cell viability (NOMO-1; 10 nM): 1.36%
cell viability (NOMO-1; 100 nM): 0.217%
cell viability (NOMO-1; 1000 nM): 0.164%
cell viability (NOMO-1; 10000 nM): 0.267%
cell viability (THP-1; 1 nM): 85.6%
cell viability (THP-1; 10 nM): 120%
cell viability (THP-1; 100 nM): 102%
cell viability (THP-1; 1000 nM): 104%
cell viability (THP-1; 10000 nM): 101%

— the supplement of paper PMC8671470
